Data set [1] has as its system histidine-requiring Salmonella typhimurium TA100 and TA98 strains. Particulars: cited from earlier work.
Data set [2] concerns the target T1, amyloid β protein in the brain section of an Alzheimer disease patient (Homo sapiens, UniProt P05067).
T1 construct: from tissue; host or cells: paraffin-embedded temporal lobe and hippocampus of Alzheimer disease patients
Put plainly: Staining test on a brain section of an Alzheimer disease patient: amyloid β protein. In kind it is binding. From the text: (§1) (1) Brain specimens at the temporal lobe and the hippocampus of patients to which a definitive diagnosis of Alzheimer disease had been given, and those of normal senile persons were used. The specimens were given by our coworker, Fukushimura Hospital, Longevity Medicine Institute, and we were given their consent of use of the specimens for our study purpose by the bereaved of the patients (Fukushimura Hospital Ethical Review Board Approval No. 20).
(§2) (2) The paraffin-embedded brain tissue was cut Into slices having a thickness of 6 μm or 8 μm, and extended and dried on a slide. The paraffin brain section was steeped for paraffin removal in xylene twice for 10 minutes, 100% ethanol twice for 5 minutes, 90% ethanol for 5 minutes and running water for 10 minutes in that order.
(§3) (3) For pretreatment prior to the staining treatment with a compound of the invention, the sections were steeped for autofluorescence removal with lipofuscin. First, the paraffin-removed sections were dipped in 0.25% KMnO4 solution for 20 minutes. These were washed with PBS, twice for 2 minutes, then dipped in 0.1% K2S2O5/oxalic acid solution for about 5 seconds, and then further washed with PBS, three times for 2 minutes.
(4) About 150 μl of a 100 μM solution of a compound of the invention dissolved in 50% ethanol was dropwise applied to the section and reacted for 10 minutes. After dipped five times in tap water, the section was entrapped with Fluor Save Reagent (Calbiochem), and analyzed through microscopy with a fluorescence microscope (Nikon, Eclipse 80i). The images were taken with a digital camera (Nikon Dxm 1200F or Photometrics' Cool SNAP ES).
(1) After paraffin removal, the sections were washed in distilled water, twice for 2 minutes. Then, using ImmunoPen, the tissue was marked with a surrounding line; about 150 μl of formic acid was dropwise applied to the section and statically left at room temperature for 5 minutes. The section was washed with tap water for 5 minutes, then dipped in cold PBS-Tween 20 for 2 minutes, and thereafter about 150 μl of 0.05% trypsin solution was dropwise applied to it and reacted at 37° C. for 15 minutes.
(2) In an ice bath, this was washed with cold PBS-Tween 20, twice for 5 minutes, and then 2 drops of blocking serum were applied to it and reacted at 37° C. for 30 minutes. Excess water was removed, and then about 150 μl of a specific antibody to amyloid β protein, 6F/3D (by DAKO, 1/50 dilution) was dropwise applied to it, and reacted at 37° C. for 1 hour.
(3) Further, this was washed with cold PBS-Tween 20, 5 times for 2 minutes, and then 2 drops of an anti-mouse IgG (H+L), goat, biotin-binding solution were applied to it and reacted at 37° C. for 1 hour. Then, this was washed with cold PBS-Tween 20, three times for 2 minutes, and 2 drops of an ABC solution (streptoavidin-biotin-peroxidase composite solution) were applied to it, and left statically as such for 30 minutes. Again this was washed with cold PBS-Tween 20, three times for 2 minutes, and then about 150 μl of a DAB solution (10 mg of DAB was dissolved in 20 ml of 0.05 mol/liter tris-HCl buffer, and just before use, 100 μl of 3% hydrogen peroxide water was added to it) was dropwise applied to it for sufficiently staining it. Then, this was washed with distilled water for 1 minute to stop the reaction, then entrapped and observed through microscopy.

Data set [3] relates to neurofibrillary tangle in the brain section of an Alzheimer disease patient. Put plainly: Staining test on a brain section of an Alzheimer disease patient: neurofibrillary tangle. Particulars: 100 μM solution in 50% ethanol, 10 minutes, paraffin brain section. In kind it is binding, human.
Text: as §1, §2, §3
(4) About 150 μl of a 100 μM solution of a compound of the invention dissolved in 50% ethanol was dropwise applied to the section and reacted for 10 minutes. After dipped five times in tap water, the section was entrapped with Fluor Save Reagent (Calbiochem), and analyzed through microscopy with a fluorescence microscope (Nikon, Eclipse 80i). The images were taken with a digital camera (Nikon Dxm 1200F or Photometrics' Cool SNAP ES). […]

The nature of data set [4]: Acute Toxicity Test. Format: in vivo. Particulars: Crj:CD1 male mice, tail vein, observed for 7 days. As to the method: The compounds of the invention were tested for their acute toxicity through intravenous administration thereof to mice. Four Crj:CD1 male mice formed one test group, and some test groups of those mice were used (the mean body weight of the mice of each group was from 31 to 32 g). A test compound was dissolved in a mixture of 1 N HCl, polyethylene glycol-400 and distilled water, or dissolved in DMSO, and then diluted with distilled water. This was administered to each mouse via its tail vein.

A short description of data set [5]: Brain Permeability Test Through HPLC. In kind it is in vivo. The following applies: mice, 2 minutes after intravenous administration. As to the method:
A compound of the invention was intravenously administered to mice, and tested for its in-vivo brain permeability in the mice.
(1) Slc:ICR mice (by Nippon SLC) (body weight, 30 to 40 g; n=3) were used.
(2) A test compound was dissolved in a mixture of 5% Tween 80-5% ethyl alcohol-5% 1 N HCl-physiological saline water, and injected into the test mouse via its tail vein. Two minutes after the administration, the blood was collected from the test mouse under ether anesthesia via its abdominal aorta using a heparin-steeped syringe, and the brain material was collected from it.
(3) After collected, the blood was centrifuged at 4° C. and 14,000 rpm for 10 minutes, and the supernatant was stored at −80° C. as plasma. After collected, the brain material (including the cerebellum) was stored at −80° C.
(4) 0.3 ml of acetonitrile was added to 0.1 ml of the plasma, then vortexed, and centrifuged at 4° C. and under 10,000 G for 5 minutes. After centrifuged, 0.2 ml of the resulting supernatant was transferred into Mini-Uniprep (Whatman), then 0.2 ml of 20 mM phosphate buffer was added to it and filtered. 0.2 ml of the resulting filtrate was analyzed through HPLC (Shiseido Nanospace SI-2; pump, 3001; UV-VIS detector, 3002; column thermostat, 3004; fluorescence detector, 3013).
(5) 2 ml of methanol was added to the brain, homogenized, and centrifuged at 4° C. and 3000 or 4000 rpm for 10 minutes. After centrifuged, 500 μl of the resulting supernatant was diluted 10-fold with 20 mM phosphate buffer. (i) 2 to 3 ml of acetonitrile, (ii) 2 to 5 ml of methanol and (iii) 4 to 6 ml of ultra-pure water were led through a cartridge for solid-phase extraction (J. T. Baker Speedisk) in that order, and the 10-fold diluted supernatant solution was led through it. Via an empty syringe, air was applied to the cartridge for solid-phase extraction, two or three times to remove water, and then this was eluted with about 500 μl of acetonitrile or methanol, and the eluate was diluted 2-fold with 20 mM phosphate buffer. 0.2 ml of the resulting solution was analyzed through HPLC.
(6) The test compound content in the plasma and in the brain was determined relative to the dose of the compound (% ID (injected dose)/g or ml).

The subject of data set [6] is histidine-requiring Salmonella typhimurium TA100 and TA98 strains. Put plainly: Mutagenicity Test (reverse mutation test). Format: cell-based. As to the method:
In view of their use, it is desirable that the compounds of the invention have no mutagenicity or have little mutagenicity to a level causing no problem. For investigating the gene mutagenesis of the compounds of the invention, herein carried out was a reverse mutation test with histidine-requiring Salmonella typhimurium TA100 and TA98 strains. Two tests were carried out. One is a test for dose determination test; and the other is for mutagenicity.
The test methods and the mutagenicity of the compounds of the invention are mentioned below. In the dose determination test, six doses of 0.160, 0.800, 4.00, 20.0, 100 and 500 μg/plate (common ratio 5) were tried.
As a result of the dose determination test, when the mutagenicity of the test compound was admitted, then the actual test for mutagenicity was carried out, using the dose capable of giving an accurate dose-reaction curve. When no mutagenicity of the test compound was admitted in the dose determination test and when the growth inhibition of the test cells was admitted therein, then the dose to present the growth inhibition was taken as the maximum dose; and when the growth inhibition was not admitted, then a dose of 5000 μg/plate was taken as the maximum dose. With that, the actual test for mutagenicity was carried out on the level of 6 doses (common ratio 2).
First, a test compound was dissolved or suspended in DMSO, then diluted in order to prepare test compound liquids having a varying concentration.
100 μl of a test compound liquid or a negative control (DMSO) solution was put into a sterilized test tube. Then, for the case in the absence of a metabolic activation system (−S9mix), 500 μl of 0.1 mol/liter sodium-phosphate buffer (pH 7.4) was added to it; and for the case in the presence of a metabolic activation system (+S9mix), 500 μl of S9mix was added to it.
Next, 100 μl of the test strain suspension that had been cultivated with shaking at 37° C. for 8 hours was added to it, and preincubated in a shaking thermostat at 37° C. for 20 minutes. After shaken, 2 ml of top agar was added to it, and the contents were mixed.
Next, the mixture was poured onto a minimal glucose agar plate medium (plate) and spread uniformly thereon, then the top agar was solidified, and the plate was transferred into a thermostat and incubated at 37° C. for 48 hours.
Then, the number of the colonies grown through reverse mutation was counted.
For counting it, […]. After area correction and miss-counting correction, the number of the colonies was computed. When the colony analyzer could not be used owing to the deposition of the test compound or the cell growth inhibition, then the number of the colonies was counted with the naked eye.
In case where the number of the colonies through reverse mutation increased two times or more that of the negative control and where the dose dependency or the reproducibility of the increase was admitted, then the tested sample was decided as positive. When the sample was is decided as positive, then the relative activity that indicates the relative comparative value of the intensity of the mutagenicity of the test compound was obtained according to the following formula: Relative Activity={(number of colonies per plate having the concentration)−(number of colonies per negative control plate)}/the value of concentration (mg/plate).

The target in data set [7] is T2, Amyloid β protein 1-40 (Homo sapiens, UniProt P05067).
T2 construct: Amyloid β protein 1-40 (bought from Peptide Laboratory); purchased Peptide Laboratory
Put plainly: Fluorescence Congo Red Method. In kind it is binding. Particulars: 1 h, compound 10 μM, amyloid β protein 5 μM. As to the method: Next described is a screening method for the compounds of the invention. Some of the compounds of the invention could not be screened according to a Thioflavin T method, since their fluorescence wavelength overlaps with that of Thioflavin T. For such compounds, the following novel screening method was introduced. (1) Amyloid β protein 1-40 (bought from Peptide Laboratory) was dissolved in a phosphate buffer (pH 7.4) and left at 37° C. for 4 days. (2) 50 μl of Congo red dissolved in the buffer was applied to a 96-well microplate (final concentration, 0.1, 0.3, 1 μM). (3) 100 μl of amyloid β protein was added to it (final concentration 5 μM), and left as such for 30 minutes. (4) 100 μl of a test compound dissolved in the buffer was added to it (final concentration, 10 μM, and left as such for 60 minutes. (5) Using a fluorescence microplate reader (Spectra Max 190 by Molecular Device), the sample was analyzed at the optimum exciting wavelength and the test wavelength that had been previously determined. (6) The fluorescence intensity in the presence of the test compound, amyloid β protein and Congo red is represented by A; that in the presence of the test compound and Congo red is by B; that in the presence of the test compound and amyloid β protein is by C; and that in the presence of only the test compound is by D. The β structure recognition of the test compound is computed according to the following formula: β structure recognition (%) of test compound={(A−B)/(C−D)}×100. (7) It may be said that the test compound having a higher β structure recognition percentage may have higher binding specificity to amyloid β protein.

Structures are written as SMILES. Where two headings read alike, the source gives them in different places.

T2 sequence (P05067 672-711): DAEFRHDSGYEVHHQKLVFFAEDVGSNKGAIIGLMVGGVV
T1 sequence (P05067 672-713 limits assumed): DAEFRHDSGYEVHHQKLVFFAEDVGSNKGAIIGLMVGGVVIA

Turning to `CC(=C(C#N)C#N)c1ccc2cc(N(C)CCF)ccc2c1` [FDDNP], in data set [1], the “Relative Activity in the absence of S9Mix” value was 3,564,960 and the “Relative Activity in the presence of S9Mix” value is reported as “minus”.

With `CN(C)c1ccc(-c2cn3cc(I)ccc3n2)cc1` [IMPY], the “Relative activity (mutagenicity)” value in data set [1] (in the presence of S9mix, literature compounds) is “extremely high”. In data set [1] (reverse mutation test, +S9mix, data from PCT/JP03/07183 (WO03/106439)), the “Relative Activity in the presence of S9Mix” value is “minus”. The “Relative Activity in the absence of S9Mix” value in data set [1] (reverse mutation test, -S9mix, data from PCT/JP03/07183 (WO03/106439)) is 3,326,100.

Regarding `CN1C=CC(=C/C=C2\C=Nc3ccccc32)C=C1` [THK-185, 3-[2-(1-methyl-1H-pyridin-4-ylidene)-ethylidene]-3H-indole], the “Binding to (staining of) amyloid β protein in the brain section of an Alzheimer disease patient” value in data set [2] (100 μM solution in 50% ethanol, 10 minutes, paraffin brain section) is given as “bound to the amyloid β protein”. Moreover, the “Specificity to amyloid β” value in data set [2] (statement in the description of formulae (II) to (VI)) is “high specificity to amyloid β”. For the same compound, the “Binding to (staining of) neurofibrillary tangle in the brain section of an Alzheimer disease patient” value in data set [3] was “bound to the amyloid β protein and the neurofibrillary tangle”.

Consider `OCC(CF)Oc1ccc2nc(/C=C/c3cnc(N4CCCCC4)s3)oc2c1` (centres unmarked) [THK-713], for which the “Maximum Permissible Dose (mg/kg, intravenous administration)” value in data set [4] was “≧10 mg/kg”. Moreover, in data set [5] (brain), the “Brain Permeability: Brain” value was 5.9 % ID/g or ml. The “Brain Permeability: Plasma” value in data set [5] (plasma) was 3.29 % ID/g or ml. The “Relative activity (mutagenicity)” value in data set [6] (irrespective of the absence or presence of S9mix) was “minus”. The “Relative Activity in the presence of S9Mix” value in data set [6] (reverse mutation test, +S9mix) is recorded as “minus”. Moreover, in data set [6] (reverse mutation test, -S9mix), the “Relative Activity in the absence of S9Mix” value was “minus”. In addition, the activity at 10 µM in data set [7] (Congo red 0.1 μM, read-out: Binding Percentage of Compound in the presence of 0.1 μM CR) stood at 58.2%; in data set [7] (Congo red 0.3 μM, read-out: Binding Percentage of Compound in the presence of 0.3 μM CR) it was 21.2%; in data set [7] (Congo red 1 μM, read-out: Binding Percentage of Compound in the presence of 1 μM CR) it was 3%.

(Values after patent US7910579B2, “Benzoxazole derivatives” (Tohoku University, priority 2006, dated 2011).)
